Key:
Assay type in all cases: biochemical
FGFR1 = FGFR1 (Homo sapiens (Human), UniProt P11362); experiment: FGFR Enzymatic Assay (FRET peptide phosphorylation), FGFR1; conditions: ATP 210 μM, enzyme 0.02 nM
Procedure: (§1) The inhibitor potency of the exemplified compounds was measured in an enzyme assay that measures peptide phosphorylation using FRET measurements to detect product formation. Inhibitors were serially diluted in DMSO and a volume of 0.5 μL was transferred to the wells of a 384-well plate. For FGFR3, a 10 μL volume of FGFR3 enzyme (Millipore) diluted in assay buffer (50 mM HEPES, 10 mM MgCl2, 1 mM EGTA, 0.01% Tween-20, 5 mM DTT, pH 7.5) was added to the plate and pre-incubated for 5-10 minutes. Appropriate controls (enzyme blank and enzyme with no inhibitor) were included on the plate. The assay was initiated by the addition of a 10 μL solution containing biotinylated EQEDEPEGDYFEWLE peptide substrate (SEQ ID NO: 1) and ATP (final concentrations of 500 nM and 140 μM respectively) in assay buffer to the wells. The plate was incubated at 25° C. for 1 hr. The reactions were ended with the addition of 10 μL/well of quench solution (50 mM Tris, 150 mM NaCl, 0.5 mg/mL BSA, pH 7.8; 30 mM EDTA with Perkin Elmer Lance Reagents at 3.75 nM Eu-antibody PY20 and 180 nM APC-Streptavidin). The plate was allowed to equilibrate for ˜1 hr before scanning the wells on a PheraStar plate reader (BMG Labtech).
(§2) FGFR1 and FGFR2 were measured under equivalent conditions with the following changes in enzyme and ATP concentrations: FGFR1, 0.02 nM and 210 μM, respectively and FGFR2, 0.01 nM and 100 μM, respectively. The enzymes were purchased from Millipore or Invitrogen.
(§3) GraphPad prism3 was used to analyze the data. The IC50 values were derived by fitting the data to the equation for a sigmoidal dose-response with a variable slope. Y=Bottom+(Top−Bottom)/(1+10^((Log IC50−X)*HillSlope)) where X is the logarithm of concentration and Y is the response.

FGFR3 = FGFR3 (Homo sapiens (Human), UniProt P22607); experiment: FGFR Enzymatic Assay (FRET peptide phosphorylation), FGFR3; conditions: ATP 140 μM
FGFR3, sequence (P22607 23-806): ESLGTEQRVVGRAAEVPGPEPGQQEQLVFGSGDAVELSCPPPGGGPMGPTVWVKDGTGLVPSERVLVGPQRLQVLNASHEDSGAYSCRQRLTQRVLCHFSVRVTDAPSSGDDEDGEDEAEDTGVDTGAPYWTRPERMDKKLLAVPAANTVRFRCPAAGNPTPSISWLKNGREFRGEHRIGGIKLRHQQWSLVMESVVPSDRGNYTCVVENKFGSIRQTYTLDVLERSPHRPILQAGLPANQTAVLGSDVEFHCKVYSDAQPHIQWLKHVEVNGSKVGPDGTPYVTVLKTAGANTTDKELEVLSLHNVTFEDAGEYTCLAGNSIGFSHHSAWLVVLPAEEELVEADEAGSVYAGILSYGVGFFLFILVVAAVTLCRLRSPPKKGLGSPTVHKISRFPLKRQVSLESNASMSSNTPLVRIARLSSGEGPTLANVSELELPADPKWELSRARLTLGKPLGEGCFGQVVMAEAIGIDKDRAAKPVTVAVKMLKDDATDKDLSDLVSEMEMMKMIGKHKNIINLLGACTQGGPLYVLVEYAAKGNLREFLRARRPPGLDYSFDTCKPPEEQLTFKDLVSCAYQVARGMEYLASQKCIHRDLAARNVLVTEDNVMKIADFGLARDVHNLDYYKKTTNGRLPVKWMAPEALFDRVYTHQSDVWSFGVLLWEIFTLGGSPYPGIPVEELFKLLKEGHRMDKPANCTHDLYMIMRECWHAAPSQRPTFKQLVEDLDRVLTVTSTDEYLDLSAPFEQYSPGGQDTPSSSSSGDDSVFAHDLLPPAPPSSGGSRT
Procedure: as §1, §3

FGFR2 = FGFR2 (Homo sapiens (Human), UniProt P21802); experiment: FGFR Enzymatic Assay (FRET peptide phosphorylation), FGFR2; conditions: ATP 100 μM, enzyme 0.01 nM
FGFR2, sequence (P21802 22-821): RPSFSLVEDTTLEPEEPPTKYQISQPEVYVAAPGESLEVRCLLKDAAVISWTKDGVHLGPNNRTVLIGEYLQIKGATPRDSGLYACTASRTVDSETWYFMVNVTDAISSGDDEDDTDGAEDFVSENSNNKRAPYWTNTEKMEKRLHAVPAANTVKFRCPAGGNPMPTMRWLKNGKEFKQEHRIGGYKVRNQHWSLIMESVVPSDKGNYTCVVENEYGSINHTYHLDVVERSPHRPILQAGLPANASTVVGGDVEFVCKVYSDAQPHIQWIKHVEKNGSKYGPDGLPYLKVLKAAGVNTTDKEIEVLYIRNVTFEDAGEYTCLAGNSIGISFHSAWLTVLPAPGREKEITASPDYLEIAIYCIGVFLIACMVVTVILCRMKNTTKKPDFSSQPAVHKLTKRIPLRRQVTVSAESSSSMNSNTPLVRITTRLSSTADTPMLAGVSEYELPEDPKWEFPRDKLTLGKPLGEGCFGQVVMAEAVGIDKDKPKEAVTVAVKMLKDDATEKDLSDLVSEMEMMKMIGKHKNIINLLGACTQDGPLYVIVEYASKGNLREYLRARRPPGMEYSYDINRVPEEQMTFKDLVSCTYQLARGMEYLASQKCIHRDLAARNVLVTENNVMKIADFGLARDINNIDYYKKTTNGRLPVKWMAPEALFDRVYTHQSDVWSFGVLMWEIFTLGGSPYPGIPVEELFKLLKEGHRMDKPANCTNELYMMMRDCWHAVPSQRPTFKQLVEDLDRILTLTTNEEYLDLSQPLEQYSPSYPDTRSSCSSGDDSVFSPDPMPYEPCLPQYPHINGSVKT
Procedure: as §1, §2, §3

Measured: IC50

FGFR1, sequence (P11362 22-822): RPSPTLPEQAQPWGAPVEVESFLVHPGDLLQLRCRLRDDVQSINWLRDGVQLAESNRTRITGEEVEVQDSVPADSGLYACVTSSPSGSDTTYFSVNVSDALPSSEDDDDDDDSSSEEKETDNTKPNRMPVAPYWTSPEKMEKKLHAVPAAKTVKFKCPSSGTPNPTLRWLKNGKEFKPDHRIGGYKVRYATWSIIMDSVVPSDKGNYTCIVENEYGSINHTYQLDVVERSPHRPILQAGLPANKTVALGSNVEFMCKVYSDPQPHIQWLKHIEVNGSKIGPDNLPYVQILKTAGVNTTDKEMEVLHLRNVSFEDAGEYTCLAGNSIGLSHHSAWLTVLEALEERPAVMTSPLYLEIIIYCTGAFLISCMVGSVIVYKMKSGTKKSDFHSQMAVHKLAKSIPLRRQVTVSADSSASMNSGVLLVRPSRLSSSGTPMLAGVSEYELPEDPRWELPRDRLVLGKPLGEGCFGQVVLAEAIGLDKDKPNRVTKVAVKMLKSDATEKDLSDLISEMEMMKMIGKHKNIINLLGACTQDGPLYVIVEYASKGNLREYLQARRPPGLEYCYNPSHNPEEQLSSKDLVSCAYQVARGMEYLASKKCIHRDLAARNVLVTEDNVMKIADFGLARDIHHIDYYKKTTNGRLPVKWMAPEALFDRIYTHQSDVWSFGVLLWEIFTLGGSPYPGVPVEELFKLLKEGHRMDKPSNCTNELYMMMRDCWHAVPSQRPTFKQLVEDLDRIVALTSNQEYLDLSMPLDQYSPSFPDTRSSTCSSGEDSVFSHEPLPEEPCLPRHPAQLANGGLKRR

COc1cc(OC)c(F)c(N2Cc3cnc(NC4CCN(C)CC4)cc3C3(CC3)C2=O)c1F [Example 44, 2′-(2,6-difluoro-3,5-dimethoxyphenyl)-6′-(1-methylpiperidin-4-ylamino)-1′H-spiro[cyclopropane-1,4′-[2,7]naphthyridin]-3′(2′H)-one]
< 100 nM: all assays above

COc1cc(OC)c(F)c(N2Cc3cnc(N)c(-c4ccncc4)c3N(C)C2=O)c1F [Example 17, 7-amino-3-(2,6-difluoro-3,5-dimethoxyphenyl)-1-methyl-8-pyridin-4-yl-3,4-dihydropyrido[4,3-d]pyrimidin-2(1H)-one]
< 100 nM: all assays above

COc1cc(OC)c(F)c(N2Cc3cnc(N)c(/C=C/c4ccccc4)c3N(C)C2=O)c1F [Example 18, 7-amino-3-(2,6-difluoro-3,5-dimethoxyphenyl)-1-methyl-8-[(E)-2-phenylvinyl]-3,4-dihydropyrido[4,3-d]pyrimidin-2(1H)-one]
< 100 nM: all assays above

COc1cc(OC)c(F)c(N2Cc3cnc(N)c(Oc4ccccc4)c3N(C)C2=O)c1F [Example 7, 7-amino-3-(2,6-difluoro-3,5-dimethoxyphenyl)-1-methyl-8-phenoxy-3,4-dihydropyrido[4,3-d]pyrimidin-2(1H)-one]
< 100 nM: all assays above

COc1cc(OC)c(F)c(N2Cc3cnc(N[C@H]4CC[C@H](O)CC4)cc3C3(CC3)C2=O)c1F [Example 40, 2′-(2,6-difluoro-3,5-dimethoxyphenyl)-6′-(trans-4-hydroxycyclohexylamino)-1′H-spiro[cyclopropane-1,4′-[2,7]naphthyridin]-3′(2′H)-one]
< 100 nM: all assays above

COc1cc(OC)c(F)c(N2Cc3cnc(N)c(CCc4ccccc4)c3N(C)C2=O)c1F [Example 19, 7-amino-3-(2,6-difluoro-3,5-dimethoxyphenyl)-1-methyl-8-phenylethyl-3,4-dihydropyrido-[4,3-d]pyrimidin-2(1H)-one]
< 100 nM: all assays above

COc1cc(OC)c(F)c(N2Cc3cnc(N)c(-c4ccc(F)cc4)c3N(C)C2=O)c1F [Example 15, 7-amino-3-(2,6-difluoro-3,5-dimethoxyphenyl)-8-(4-fluorophenyl)-1-methyl-3,4-dihydro-pyrido[4,3-d]pyrimidin-2(1H)-one]
< 100 nM: all assays above

COc1cc(OC)c(F)c(N2Cc3cnc(NC[C@@H]4CCCO4)cc3C3(CC3)C2=O)c1F [Example 35, (S)-2′-(2,6-difluoro-3,5-dimethoxyphenyl)-6′-((tetrahydrofuran-2-yl)methylamino)-1′H-spiro[cyclopropane-1,4′-[2,7]naphthyridin]-3′(2′H)-one]
< 100 nM: all assays above

COc1cc(OC)c(F)c(N2Cc3cnc(NC4CC(F)(F)C4)cc3C3(CC3)C2=O)c1F [Example 43, 2′-(2,6-difluoro-3,5-dimethoxyphenyl)-6′-(3,3-difluorocyclobutylamino)-1′H-spiro[cyclopropane-1,4′-[2,7]naphthyridin]-3′(2′H)-one]
< 100 nM: all assays above

COc1cc(OC)c(F)c(N2Cc3cnc(N)c(-c4cccnc4)c3N(C)C2=O)c1F [Example 16, 7-amino-3-(2,6-difluoro-3,5-dimethoxyphenyl)-1-methyl-8-pyridin-3-yl-3,4-dihydropyrido[4,3-d]pyrimidin-2(1H)-one]
< 100 nM: all assays above

COc1cc(OC)c(F)c(N2Cc3cnc(NC4CCCCC4)cc3C3(CC3)C2=O)c1F [Example 39, 6′-(cyclohexylamino)-2′-(2,6-difluoro-3,5-dimethoxyphenyl)-1′H-spiro[cyclopropane-1,4′-[2,7]naphthyridin]-3′(2′H)-one]
< 100 nM: all assays above

COc1cc(OC)c(F)c(N2Cc3cnc(N)c(C)c3N(c3ccccc3F)C2=O)c1F [Example 45, 7-amino-3-(2,6-difluoro-3,5-dimethoxyphenyl)-1-(2-fluorophenyl)-8-methyl-3,4-dihydropyrido[4,3-d]pyrimidin-2(1H)-one]
< 100 nM: all assays above

COc1cc(OC)c(F)c(N2Cc3cnc(N)c(C#N)c3N(Cc3cc(F)cc(F)c3)C2=O)c1F [Example 52, 7-amino-1-(3,5-difluorobenzyl)-3-(2,6-difluoro-3,5-dimethoxyphenyl)-2-oxo-1,2,3,4-tetrahydropyrido[4,3-d]pyrimidine-8-carbonitrile]
< 100 nM: all assays above

COc1cc(OC)c(F)c(N2Cc3cnc(N)c(Cl)c3N(C)C2=O)c1F [Example 54, 7-amino-8-chloro-3-(2,6-difluoro-3,5-dimethoxyphenyl)-1-methyl-3,4-dihydropyrido[4,3-d]pyrimidin-2(1H)-one]
< 100 nM: all assays above

COc1cc(OC)c(F)c(N2Cc3cnc(NC[C@H](C)O)cc3C3(CC3)C2=O)c1F [Example 27, (S)-2′-(2,6-difluoro-3,5-dimethoxyphenyl)-6′-(2-hydroxypropylamino)-1′H-spiro[cyclopropane-1,4′-[2,7]naphthyridin]-3′(2′H)-one]
< 100 nM: all assays above

COc1cc(OC)c(F)c(N2Cc3cnc(N)c(C#N)c3N(CC3CC3)C2=O)c1F [Example 49, 7-amino-1-(cyclopropylmethyl)-3-(2,6-difluoro-3,5-dimethoxyphenyl)-2-oxo-1,2,3,4-tetrahydropyrido[4,3-d]pyrimidine-8-carbonitrile]
< 100 nM: all assays above

COc1cc(OC)c(F)c(N2Cc3cnc(NCCN4CCOCC4)cc3C3(CC3)C2=O)c1F [Example 23, 2′-(2,6-difluoro-3,5-dimethoxyphenyl)-6′-[(2-morpholin-4-ylethyl)amino]-1′,2′-dihydro-3′H-spiro[cyclopropane-1,4′-[2,7]naphthyridin]-3′-one]
< 100 nM: all assays above

CCOc1c(N)ncc2c1N(C)C(=O)N(c1c(F)c(OC)cc(OC)c1F)C2 [Example 4, 7-amino-3-(2,6-difluoro-3,5-dimethoxyphenyl)-8-ethoxy-1-methyl-3,4-dihydropyrido[4,3-d]pyrimidin-2(1H)-one]
< 100 nM: all assays above

COc1cc(OC)c(F)c(N2Cc3cnc(Nc4cnn(C)c4)cc3C3(CC3)C2=O)c1F [Example 36, 2′-(2,6-difluoro-3,5-dimethoxyphenyl)-6′-(1-methyl-1H-pyrazol-4-ylamino)-1′H-spiro[cyclopropane-1,4′-[2,7]naphthyridin]-3′(2′H)-one]
< 100 nM: all assays above

COc1cc(OC)c(F)c(N2Cc3cnc(N)c(-c4ccccc4)c3N(C)C2=O)c1F [Example 14, 7-amino-3-(2,6-difluoro-3,5-dimethoxyphenyl)-1-methyl-8-phenyl-3,4-dihydropyrido[4,3-d]pyrimidin-2(1H)-one]
< 100 nM: all assays above

COC(=O)Nc1cc2c(cn1)CN(c1c(F)c(OC)cc(OC)c1F)C(=O)C21CC1 [Example 31, methyl 2′-(2,6-difluoro-3,5-dimethoxyphenyl)-3′-oxo-2′,3′-dihydro-1′H-spiro[cyclopropane-1,4′-[2,7]naphthyridine]-6′-ylcarbamate]
< 100 nM: all assays above
